One series concerns Anatidae. To be noted: not reported; oral; feed; no effects.
The test system of a further series is Canidae. The conditions noted are these: short-term; duration: 14 days; oral; diet; Dog Other; body weight.
For another series, the system named is Cyprinus carpio. To be noted: subchronic; duration: 6 weeks; oral; feed; histopathology: nonneoplastic.
A further series relates to Equus caballus. The conditions noted are these: subchronic; duration: 40 days; no effects.
In the next series the test system is Felidae. To be noted: short-term; duration: 14 days; oral; diet; Cat; body weight.
The next series deals with Gallus gallus. To be noted: subchronic; duration: 5 weeks; oral; diet; M; Chicken; no effects.
A further series concerns Meleagris sp. The conditions noted are these: subchronic; duration: 12 weeks; oral; feed; M; no effects.
The subject of a further series is Neovison vison. The conditions noted are these: short-term; duration: 28 days; oral; diet; F; food consumption.
A further series concerns Oryctolagus sp. The conditions noted are these: short-term; duration: 21 days; oral; diet; M; no effects.
The subject of a further series is Ovis sp. To be noted: short-term; duration: 28 days; oral; diet; food consumption.
The next series concerns Sus scrofa. The conditions noted are these: subchronic; duration: 3 months; oral; diet; Not specified; food consumption.

Molecules are shown by their SMILES.

Take `CC1=C[C@H]2O[C@@H]3[C@H](O)C[C@](C)([C@@]2(CO)[C@H](O)C1=O)[C@@]31CO1` [Vomitoxin]: the no-observed-adverse-effect level (NOAEL) in the series on Anatidae stood at 7 mg/kg; in the series with Bovidae (chronic, duration: 126 days, oral, diet, food consumption), 10 mg/kg-day; in the series with Bovidae (chronic, duration: 166 days, oral, diet, food consumption), 18 mg/kg-day; in the series with Bovidae (subchronic, duration: 13 weeks, F, no effects) it was 5.24 mg/kg-day; with Canidae, 4 mg/kg-day; with Cyprinus carpio it was 0.6 mg/kg. Also, the NOAEL is 36 mg/kg in the series with Equus caballus; 6 mg/kg-day in the series on Felidae; 5 mg/kg-day in the series on Gallus gallus; 6.5 mg/kg in the series on Meleagris sp.; 0.1 mg/kg-day in the series on Mus musculus (chronic, duration: 2 years, oral, diet, M/F, B6C3F1, food consumption); 0.5 mg/kg-day with Mus musculus (developmental, development). For the same compound, the NOAEL in the series on Mus musculus (reproduction developmental, oral, diet, M/F, reproduction) came out at 0.38 mg/kg-day; in the series on Mus musculus (short-term, duration: 14 days, oral, diet, M/F, BALB/cAnCr, hematological), 0.1 mg/kg-day; in the series on Neovison vison, 1.18 mg/kg-day; with Oryctolagus sp. it was 4.3 mg/kg-day; in the series with Ovis sp. it was 16 mg/kg-day; with Sus scrofa it was 0.7 mg/kg-day. The same compound displayed an LEL in the series on Mus musculus (chronic, duration: 2 years, immunology) of at least 0.0016 mg/kg-day.
